Legend:
[1] = molecular target: RPS6KA1 KD2 (human) (UniProt Q15418); assay: KINOMEscan competition binding; conditions: compound 1.0 µM
[2] = molecular target: RPS6KA3 KD1 (human) (UniProt P51812); assay: KINOMEscan competition binding; conditions: compound 1.0 µM
[3] = molecular target: MELK (human) (UniProt Q14680); assay: KINOMEscan competition binding; conditions: compound 1.0 µM
[4] = molecular target: CAMK1D (human) (UniProt Q8IU85); assay: KINOMEscan competition binding; conditions: compound 1.0 µM
[5] = molecular target: ITK (human) (UniProt Q08881); assay: KINOMEscan competition binding; conditions: compound 1.0 µM
[6] = molecular target: SYK (human) (UniProt P43405); assay: KINOMEscan competition binding; conditions: compound 1.0 µM
[7] = molecular target: PRKD3 (human) (UniProt O94806); assay: KINOMEscan competition binding; conditions: compound 1.0 µM
Sequence of PRKD3 (human) (O94806 whole entry, looked up): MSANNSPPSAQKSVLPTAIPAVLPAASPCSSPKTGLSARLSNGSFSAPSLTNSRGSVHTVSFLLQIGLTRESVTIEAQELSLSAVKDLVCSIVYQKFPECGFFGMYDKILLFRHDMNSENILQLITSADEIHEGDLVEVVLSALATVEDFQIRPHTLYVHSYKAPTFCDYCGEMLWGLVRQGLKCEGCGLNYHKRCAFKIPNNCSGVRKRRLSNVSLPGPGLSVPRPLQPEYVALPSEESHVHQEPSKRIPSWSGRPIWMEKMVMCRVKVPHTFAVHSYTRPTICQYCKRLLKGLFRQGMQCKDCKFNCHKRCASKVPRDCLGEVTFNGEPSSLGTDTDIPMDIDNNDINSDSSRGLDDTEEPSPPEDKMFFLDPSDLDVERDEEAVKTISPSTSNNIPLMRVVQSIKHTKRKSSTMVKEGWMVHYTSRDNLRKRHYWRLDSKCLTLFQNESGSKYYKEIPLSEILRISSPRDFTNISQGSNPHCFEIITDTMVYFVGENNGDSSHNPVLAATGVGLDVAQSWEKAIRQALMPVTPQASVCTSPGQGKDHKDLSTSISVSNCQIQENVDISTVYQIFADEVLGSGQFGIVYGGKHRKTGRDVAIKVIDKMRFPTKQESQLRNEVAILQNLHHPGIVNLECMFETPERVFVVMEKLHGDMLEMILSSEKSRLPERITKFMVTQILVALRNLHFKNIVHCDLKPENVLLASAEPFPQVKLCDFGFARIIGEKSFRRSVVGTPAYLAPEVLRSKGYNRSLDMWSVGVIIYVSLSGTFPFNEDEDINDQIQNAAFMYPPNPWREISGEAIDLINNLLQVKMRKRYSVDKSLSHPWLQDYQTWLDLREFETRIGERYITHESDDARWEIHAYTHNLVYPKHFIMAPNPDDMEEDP

[8] = molecular target: MAP3K4 (human) (UniProt Q9Y6R4); assay: KINOMEscan competition binding; conditions: compound 1.0 µM
[9] = molecular target: MAPK6 (human) (UniProt Q16659); assay: KINOMEscan competition binding; conditions: compound 1.0 µM
[10] = molecular target: BMPR2 (human) (UniProt Q13873); assay: KINOMEscan competition binding; conditions: compound 1.0 µM
[11] = molecular target: PIP5K1A (human) (UniProt Q99755); assay: KINOMEscan competition binding; conditions: compound 1.0 µM
[12] = molecular target: STK17B (human) (UniProt O94768); assay: KINOMEscan competition binding; conditions: compound 1.0 µM
[13] = test system: EGFR (human), P00533 [P753S; 747-752 del]; assay: KINOMEscan competition binding; conditions: compound 1.0 µM
[14] = molecular target: LIMK1 (human) (UniProt P53667); assay: KINOMEscan competition binding; conditions: compound 1.0 µM
[15] = molecular target: IRAK3 (human) (UniProt Q9Y616); assay: KINOMEscan competition binding; conditions: compound 1.0 µM
[16] = molecular target: CDK5 (human) (UniProt Q00535); assay: KINOMEscan competition binding; conditions: compound 1.0 µM
Sequence of CDK5 (human) (Q00535 whole entry, looked up): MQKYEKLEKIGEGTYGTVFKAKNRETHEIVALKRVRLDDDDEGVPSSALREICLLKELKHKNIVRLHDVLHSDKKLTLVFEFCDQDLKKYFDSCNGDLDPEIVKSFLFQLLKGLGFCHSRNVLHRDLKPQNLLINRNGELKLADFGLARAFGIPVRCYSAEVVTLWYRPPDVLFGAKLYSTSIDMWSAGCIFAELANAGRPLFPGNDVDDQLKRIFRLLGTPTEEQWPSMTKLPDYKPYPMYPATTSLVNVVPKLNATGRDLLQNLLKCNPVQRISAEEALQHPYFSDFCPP

[17] = molecular target: PHKG1 (human) (UniProt Q16816); assay: KINOMEscan competition binding; conditions: compound 1.0 µM
[18] = molecular target: TGFBR1 (human) (UniProt P36897); assay: KINOMEscan competition binding; conditions: compound 1.0 µM
[19] = molecular target: SBK1 (human) (UniProt Q52WX2); assay: KINOMEscan competition binding; conditions: compound 1.0 µM
[20] = molecular target: ICK (human) (UniProt Q9UPZ9); assay: KINOMEscan competition binding; conditions: compound 1.0 µM
Sequence of ICK (human) (Q9UPZ9 whole entry, looked up): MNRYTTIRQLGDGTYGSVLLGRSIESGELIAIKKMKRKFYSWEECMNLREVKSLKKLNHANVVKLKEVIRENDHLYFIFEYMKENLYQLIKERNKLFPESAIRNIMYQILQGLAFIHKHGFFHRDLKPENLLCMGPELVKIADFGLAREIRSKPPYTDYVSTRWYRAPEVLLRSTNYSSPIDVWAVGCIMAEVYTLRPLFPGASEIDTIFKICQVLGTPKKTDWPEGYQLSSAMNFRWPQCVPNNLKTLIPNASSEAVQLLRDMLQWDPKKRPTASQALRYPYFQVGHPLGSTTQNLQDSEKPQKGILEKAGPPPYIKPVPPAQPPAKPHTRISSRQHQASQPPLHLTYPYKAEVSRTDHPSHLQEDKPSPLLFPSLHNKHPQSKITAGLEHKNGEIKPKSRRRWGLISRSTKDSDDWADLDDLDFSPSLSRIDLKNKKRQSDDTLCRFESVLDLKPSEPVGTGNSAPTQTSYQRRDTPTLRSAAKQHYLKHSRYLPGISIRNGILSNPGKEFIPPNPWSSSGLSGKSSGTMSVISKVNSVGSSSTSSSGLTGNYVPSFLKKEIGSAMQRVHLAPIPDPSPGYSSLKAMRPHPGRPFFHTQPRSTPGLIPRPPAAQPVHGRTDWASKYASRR

[21] = molecular target: PRKAA2 (human) (UniProt P54646); assay: KINOMEscan competition binding; conditions: compound 1.0 µM
Sequence of PRKAA2 (human) (P54646 whole entry, looked up): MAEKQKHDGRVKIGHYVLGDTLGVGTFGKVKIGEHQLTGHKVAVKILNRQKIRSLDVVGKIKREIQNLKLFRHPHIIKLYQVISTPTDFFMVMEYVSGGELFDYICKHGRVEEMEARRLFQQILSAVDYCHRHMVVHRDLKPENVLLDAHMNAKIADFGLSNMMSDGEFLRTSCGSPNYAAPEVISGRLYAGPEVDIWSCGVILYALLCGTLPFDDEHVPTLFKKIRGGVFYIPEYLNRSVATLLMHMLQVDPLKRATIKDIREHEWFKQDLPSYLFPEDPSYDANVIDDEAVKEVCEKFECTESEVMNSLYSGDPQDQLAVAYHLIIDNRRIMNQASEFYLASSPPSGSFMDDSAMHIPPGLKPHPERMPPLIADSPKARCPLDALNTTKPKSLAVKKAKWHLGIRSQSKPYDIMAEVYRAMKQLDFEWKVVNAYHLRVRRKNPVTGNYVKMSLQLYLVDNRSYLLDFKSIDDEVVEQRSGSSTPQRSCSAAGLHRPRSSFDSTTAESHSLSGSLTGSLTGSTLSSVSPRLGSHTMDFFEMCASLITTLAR

[22] = molecular target: TBK1 (human) (UniProt Q9UHD2); assay: KINOMEscan competition binding; conditions: compound 1.0 µM
Sequence of TBK1 (human) (Q9UHD2 whole entry, looked up): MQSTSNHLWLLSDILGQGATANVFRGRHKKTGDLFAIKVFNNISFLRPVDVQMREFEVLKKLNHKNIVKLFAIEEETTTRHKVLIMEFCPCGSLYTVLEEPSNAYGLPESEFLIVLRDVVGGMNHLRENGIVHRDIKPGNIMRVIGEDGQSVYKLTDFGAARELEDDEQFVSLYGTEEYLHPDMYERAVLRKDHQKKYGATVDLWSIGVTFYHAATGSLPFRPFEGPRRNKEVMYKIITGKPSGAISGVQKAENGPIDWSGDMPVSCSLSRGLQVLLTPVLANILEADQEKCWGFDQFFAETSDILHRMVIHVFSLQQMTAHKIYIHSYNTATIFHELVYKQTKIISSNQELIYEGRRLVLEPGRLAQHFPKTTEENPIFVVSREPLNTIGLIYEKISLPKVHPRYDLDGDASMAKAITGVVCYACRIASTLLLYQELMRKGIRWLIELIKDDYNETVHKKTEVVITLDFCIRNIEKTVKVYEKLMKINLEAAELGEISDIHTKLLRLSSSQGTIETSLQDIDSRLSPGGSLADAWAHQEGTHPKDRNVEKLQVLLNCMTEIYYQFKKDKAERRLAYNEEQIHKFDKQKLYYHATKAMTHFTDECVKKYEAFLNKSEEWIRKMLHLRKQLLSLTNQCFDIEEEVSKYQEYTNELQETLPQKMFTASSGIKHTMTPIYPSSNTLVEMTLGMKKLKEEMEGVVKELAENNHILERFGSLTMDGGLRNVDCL

[23] = molecular target: HIPK3 (human) (UniProt Q9H422); assay: KINOMEscan competition binding; conditions: compound 1.0 µM
[24] = molecular target: MAST1 (human) (UniProt Q9Y2H9); assay: KINOMEscan competition binding; conditions: compound 1.0 µM
[25] = molecular target: PLK4 (human) (UniProt O00444); assay: KINOMEscan competition binding; conditions: compound 1.0 µM
[26] = molecular target: RPS6KA5 KD1 (human) (UniProt O75582); assay: KINOMEscan competition binding; conditions: compound 1.0 µM
[27] = molecular target: PIP4K2B (human) (UniProt P78356); assay: KINOMEscan competition binding; conditions: compound 1.0 µM
[28] = molecular target: MAK (human) (UniProt P20794); assay: KINOMEscan competition binding; conditions: compound 1.0 µM
[29] = molecular target: PLK3 (human) (UniProt Q9H4B4); assay: KINOMEscan competition binding; conditions: compound 1.0 µM
[30] = molecular target: EPHA6 (human) (UniProt Q9UF33); assay: KINOMEscan competition binding; conditions: compound 1.0 µM
[31] = molecular target: AAK1 (human) (UniProt Q2M2I8); assay: KINOMEscan competition binding; conditions: compound 1.0 µM
[32] = molecular target: AKT1 (human) (UniProt P31749); assay: SelectScreen, TR FRET; conditions: compound 5.0 µM
Sequence of AKT1 (human) (P31749 whole entry, looked up): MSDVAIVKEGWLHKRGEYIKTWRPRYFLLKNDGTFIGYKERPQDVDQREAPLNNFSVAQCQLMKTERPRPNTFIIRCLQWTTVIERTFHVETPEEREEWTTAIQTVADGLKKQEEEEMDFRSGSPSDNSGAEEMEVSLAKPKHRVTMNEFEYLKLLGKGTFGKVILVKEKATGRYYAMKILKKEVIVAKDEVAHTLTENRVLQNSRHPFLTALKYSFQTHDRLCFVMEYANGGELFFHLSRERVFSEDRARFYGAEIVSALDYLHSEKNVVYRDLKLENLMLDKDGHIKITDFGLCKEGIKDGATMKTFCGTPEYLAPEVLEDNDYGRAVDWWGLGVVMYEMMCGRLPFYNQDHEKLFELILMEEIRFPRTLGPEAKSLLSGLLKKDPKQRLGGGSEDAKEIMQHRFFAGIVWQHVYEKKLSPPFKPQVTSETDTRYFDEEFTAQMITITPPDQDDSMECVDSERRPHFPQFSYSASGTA

[33] = molecular target: PRKD1 (human) (UniProt Q15139); assay: SelectScreen, TR FRET; conditions: compound 5.0 µM
[34] = molecular target: NEK2 (human) (UniProt P51955); assay: SelectScreen, TR FRET; conditions: compound 5.0 µM
Sequence of NEK2 (human) (P51955 whole entry, looked up): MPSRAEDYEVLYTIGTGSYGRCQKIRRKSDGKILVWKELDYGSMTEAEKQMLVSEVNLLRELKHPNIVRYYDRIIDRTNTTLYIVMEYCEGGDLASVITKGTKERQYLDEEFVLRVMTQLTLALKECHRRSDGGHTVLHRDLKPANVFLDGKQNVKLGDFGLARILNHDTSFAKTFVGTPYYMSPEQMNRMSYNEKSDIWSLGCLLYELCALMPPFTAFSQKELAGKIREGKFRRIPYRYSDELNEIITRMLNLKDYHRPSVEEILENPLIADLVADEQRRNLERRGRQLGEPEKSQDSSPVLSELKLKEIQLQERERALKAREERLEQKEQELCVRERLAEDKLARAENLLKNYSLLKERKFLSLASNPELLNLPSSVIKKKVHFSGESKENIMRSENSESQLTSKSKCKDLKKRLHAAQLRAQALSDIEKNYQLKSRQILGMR

[35] = molecular target: PHKG2 (human) (UniProt P15735); assay: SelectScreen, TR FRET; conditions: compound 5.0 µM
[36] = molecular target: MAPKAPK5 (human) (UniProt Q8IW41); assay: SelectScreen, TR FRET; conditions: compound 5.0 µM
[37] = molecular target: GSK3B (human) (UniProt P49841); assay: SelectScreen, TR FRET; conditions: compound 5.0 µM
[38] = molecular target: FGFR1 (human) (UniProt P11362); assay: SelectScreen, TR FRET; conditions: compound 5.0 µM
[39] = molecular target: STK25 (human) (UniProt O00506); assay: SelectScreen, TR FRET; conditions: compound 5.0 µM
[40] = molecular target: FYN (human) (UniProt P06241); assay: SelectScreen, TR FRET; conditions: compound 5.0 µM

Sequence of RPS6KA1 KD2 (human) (Q15418 whole entry, looked up): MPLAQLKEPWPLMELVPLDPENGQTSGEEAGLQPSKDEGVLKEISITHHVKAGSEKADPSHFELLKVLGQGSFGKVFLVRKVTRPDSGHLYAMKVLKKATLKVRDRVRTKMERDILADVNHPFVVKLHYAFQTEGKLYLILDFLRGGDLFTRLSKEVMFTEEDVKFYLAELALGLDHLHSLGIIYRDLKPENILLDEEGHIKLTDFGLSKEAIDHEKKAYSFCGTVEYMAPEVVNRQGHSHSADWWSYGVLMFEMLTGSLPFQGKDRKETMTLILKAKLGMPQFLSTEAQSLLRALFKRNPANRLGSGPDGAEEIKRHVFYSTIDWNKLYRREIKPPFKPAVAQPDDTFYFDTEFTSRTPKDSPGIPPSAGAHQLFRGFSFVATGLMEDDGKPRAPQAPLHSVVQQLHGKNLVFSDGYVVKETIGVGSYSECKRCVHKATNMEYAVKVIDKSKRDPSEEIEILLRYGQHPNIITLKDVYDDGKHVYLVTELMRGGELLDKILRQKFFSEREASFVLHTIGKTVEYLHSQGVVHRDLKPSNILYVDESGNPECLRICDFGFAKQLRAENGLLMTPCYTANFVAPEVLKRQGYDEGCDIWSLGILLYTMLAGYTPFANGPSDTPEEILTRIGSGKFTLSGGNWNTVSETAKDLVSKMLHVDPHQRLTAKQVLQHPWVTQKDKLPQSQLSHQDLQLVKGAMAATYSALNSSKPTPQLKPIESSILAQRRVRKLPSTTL

inhibition of binding [1]: 23%
inhibition of binding [2]: 0%
inhibition of binding [3]: 0%
inhibition of binding [4]: 0%
inhibition of binding [5]: 0%
inhibition of binding [6]: 0%
inhibition of binding [7]: 11%
inhibition of binding [8]: 1%
inhibition of binding [9]: 0%
inhibition of binding [10]: 0%
inhibition of binding [11]: 0%
inhibition of binding [12]: 0%
inhibition of binding [13]: 1%
inhibition of binding [14]: 0%
inhibition of binding [15]: 0%
inhibition of binding [16]: 0%
inhibition of binding [17]: 11%
inhibition of binding [18]: 4%
inhibition of binding [19]: 17%
inhibition of binding [20]: 0%
inhibition of binding [21]: 0%
inhibition of binding [22]: 0%
inhibition of binding [23]: 0%
inhibition of binding [24]: 0%
inhibition of binding [25]: 1%
inhibition of binding [26]: 0%
inhibition of binding [27]: 0%
inhibition of binding [28]: 0%
inhibition of binding [29]: 0%
inhibition of binding [30]: 3%
inhibition of binding [31]: 0%
inhibition [32]: 2%
inhibition [33]: 5%
inhibition [34]: 7%
inhibition [35]: 3%
inhibition [36]: -1%
inhibition [37]: 7%
inhibition [38]: 4%
inhibition [39]: 6%
inhibition [40]: 9%
Compound: Nc1cc(C(F)(F)F)c(-c2cc(N3CCOCC3)nc(N3CCOCC3)n2)cn1

Source: the kinase profiling compilation of Christmann-Franck et al. (2016)
